According to PubChem BioAssay AID1259407 (Chemical Carcinogenesis Research Information System (CCRIS), 2018):
Activity calls are given as the source filed them. The rule behind the calls is not given here.

Tested on: CCRIS mutagenicity, Ames/micronucleus/aberration tests
Assay: CCRIS mutagenicity studies
[1] = Test System: AMES SALMONELLA TYPHIMURIUM, Strain/Indicator: TA98, Metabolic Activation: NONE, Method: STANDARD PLATE
[2] = Test System: AMES SALMONELLA TYPHIMURIUM, Strain/Indicator: TA98, Metabolic Activation: RAT, LIVER, S-9, AROCLOR 1254, Method: STANDARD PLATE
[3] = Test System: AMES SALMONELLA TYPHIMURIUM, Strain/Indicator: TA100, Metabolic Activation: NONE, Method: STANDARD PLATE
[4] = Test System: AMES SALMONELLA TYPHIMURIUM, Strain/Indicator: TA100, Metabolic Activation: RAT, LIVER, S-9, AROCLOR 1254, Method: STANDARD PLATE

## O=[N+]([O-])O
Test System: AMES SALMONELLA TYPHIMURIUM, Strain/Indicator: TA97, Metabolic Activation: NONE, Method: PREINCUBATION
  mutagenic call: inactive; negative
Test System: AMES SALMONELLA TYPHIMURIUM, Strain/Indicator: TA97, Metabolic Activation: S-9, Method: PREINCUBATION
  mutagenic call: inactive; negative
Test System: AMES SALMONELLA TYPHIMURIUM, Strain/Indicator: TA97A, Metabolic Activation: NONE, Method: PREINCUBATION
  mutagenic call: inactive; negative
Test System: AMES SALMONELLA TYPHIMURIUM, Strain/Indicator: TA97A, Metabolic Activation: NONE, Method: STANDARD PLATE
  mutagenic call: inactive; negative
Test System: AMES SALMONELLA TYPHIMURIUM, Strain/Indicator: TA97A, Metabolic Activation: RAT, LIVER, S-9, PHENOBARBITAL AND BETA-NAPHTHOFLAVONE, Method: PREINCUBATION
  mutagenic call: inactive; negative
Test System: AMES SALMONELLA TYPHIMURIUM, Strain/Indicator: TA97A, Metabolic Activation: RAT, LIVER, S-9, PHENOBARBITAL AND BETA-NAPHTHOFLAVONE, Method: STANDARD PLATE
  mutagenic call: inactive; negative
[1]
  mutagenic call: inactive; negative
[2]
  mutagenic call: inactive; negative
Test System: AMES SALMONELLA TYPHIMURIUM, Strain/Indicator: TA98, Metabolic Activation: RAT, LIVER, S-9, PHENOBARBITAL AND BETA-NAPHTHOFLAVONE, Method: PREINCUBATION
  mutagenic call: inactive; negative
Test System: AMES SALMONELLA TYPHIMURIUM, Strain/Indicator: TA98, Metabolic Activation: RAT, LIVER, S-9, PHENOBARBITAL AND BETA-NAPHTHOFLAVONE, Method: STANDARD PLATE
  mutagenic call: inactive; negative
[3]
  mutagenic call: inactive; negative
[4]
  mutagenic call: inactive; negative
Test System: AMES SALMONELLA TYPHIMURIUM, Strain/Indicator: TA100, Metabolic Activation: RAT, LIVER, S-9, PHENOBARBITAL AND BETA-NAPHTHOFLAVONE, Method: PREINCUBATION
  mutagenic call: inactive; negative
Test System: AMES SALMONELLA TYPHIMURIUM, Strain/Indicator: TA100, Metabolic Activation: RAT, LIVER, S-9, PHENOBARBITAL AND BETA-NAPHTHOFLAVONE, Method: STANDARD PLATE
  mutagenic call: inactive; negative
Test System: AMES SALMONELLA TYPHIMURIUM, Strain/Indicator: TA102, Metabolic Activation: NONE, Method: PREINCUBATION
  mutagenic call: inactive; negative
Test System: AMES SALMONELLA TYPHIMURIUM, Strain/Indicator: TA102, Metabolic Activation: S-9, Method: PREINCUBATION
  mutagenic call: inactive; negative
Test System: AMES SALMONELLA TYPHIMURIUM, Strain/Indicator: TA102C, Metabolic Activation: NONE, Method: PREINCUBATION
  mutagenic call: inactive; negative
Test System: AMES SALMONELLA TYPHIMURIUM, Strain/Indicator: TA102C, Metabolic Activation: NONE, Method: STANDARD PLATE
  mutagenic call: inactive; negative
Test System: AMES SALMONELLA TYPHIMURIUM, Strain/Indicator: TA102C, Metabolic Activation: RAT, LIVER, S-9, PHENOBARBITAL AND BETA-NAPHTHOFLAVONE, Method: PREINCUBATION
  mutagenic call: inactive; negative
Test System: AMES SALMONELLA TYPHIMURIUM, Strain/Indicator: TA102C, Metabolic Activation: RAT, LIVER, S-9, PHENOBARBITAL AND BETA-NAPHTHOFLAVONE, Method: STANDARD PLATE
  mutagenic call: inactive; negative
Test System: AMES SALMONELLA TYPHIMURIUM, Strain/Indicator: TA1535, Metabolic Activation: NONE, Method: PREINCUBATION
  mutagenic call: inactive; negative
Test System: AMES SALMONELLA TYPHIMURIUM, Strain/Indicator: TA1535, Metabolic Activation: NONE, Method: STANDARD PLATE
  mutagenic call: inactive; negative
Test System: AMES SALMONELLA TYPHIMURIUM, Strain/Indicator: TA1535, Metabolic Activation: RAT, LIVER, S-9, AROCLOR 1254, Method: STANDARD PLATE
  mutagenic call: inactive; negative
Test System: AMES SALMONELLA TYPHIMURIUM, Strain/Indicator: TA1535, Metabolic Activation: RAT, LIVER, S-9, PHENOBARBITAL AND BETA-NAPHTHOFLAVONE, Method: PREINCUBATION
  mutagenic call: inactive; negative
Test System: AMES SALMONELLA TYPHIMURIUM, Strain/Indicator: TA1535, Metabolic Activation: RAT, LIVER, S-9, PHENOBARBITAL AND BETA-NAPHTHOFLAVONE, Method: STANDARD PLATE
  mutagenic call: inactive; negative
Test System: AMES SALMONELLA TYPHIMURIUM, Strain/Indicator: TA1537, Metabolic Activation: NONE, Method: PREINCUBATION
  mutagenic call: inactive; negative
Test System: AMES SALMONELLA TYPHIMURIUM, Strain/Indicator: TA1537, Metabolic Activation: NONE, Method: STANDARD PLATE
  mutagenic call: inactive; negative
Test System: AMES SALMONELLA TYPHIMURIUM, Strain/Indicator: TA1537, Metabolic Activation: RAT, LIVER, S-9, AROCLOR 1254, Method: STANDARD PLATE
  mutagenic call: inactive; negative
Test System: AMES SALMONELLA TYPHIMURIUM, Strain/Indicator: TA1537, Metabolic Activation: RAT, LIVER, S-9, PHENOBARBITAL AND BETA-NAPHTHOFLAVONE, Method: PREINCUBATION
  mutagenic call: inactive; negative
Test System: AMES SALMONELLA TYPHIMURIUM, Strain/Indicator: TA1537, Metabolic Activation: RAT, LIVER, S-9, PHENOBARBITAL AND BETA-NAPHTHOFLAVONE, Method: STANDARD PLATE
  mutagenic call: inactive; negative
Test System: AMES SALMONELLA TYPHIMURIUM, Strain/Indicator: TA1538, Metabolic Activation: NONE, Method: PREINCUBATION
  mutagenic call: inactive; negative
Test System: AMES SALMONELLA TYPHIMURIUM, Strain/Indicator: TA1538, Metabolic Activation: NONE, Method: STANDARD PLATE
  mutagenic call: inactive; negative
Test System: AMES SALMONELLA TYPHIMURIUM, Strain/Indicator: TA1538, Metabolic Activation: RAT, LIVER, S-9, AROCLOR 1254, Method: STANDARD PLATE
  mutagenic call: inactive; negative
Test System: AMES SALMONELLA TYPHIMURIUM, Strain/Indicator: TA1538, Metabolic Activation: RAT, LIVER, S-9, PHENOBARBITAL AND BETA-NAPHTHOFLAVONE, Method: PREINCUBATION
  mutagenic call: inactive; negative
Test System: AMES SALMONELLA TYPHIMURIUM, Strain/Indicator: TA1538, Metabolic Activation: RAT, LIVER, S-9, PHENOBARBITAL AND BETA-NAPHTHOFLAVONE, Method: STANDARD PLATE
  mutagenic call: inactive; negative
Test System: E. COLI, Strain/Indicator: WP2, Metabolic Activation: NONE, Method: STANDARD PLATE
  mutagenic call: inactive; negative
Test System: E. COLI, Strain/Indicator: WP2, Metabolic Activation: RAT, LIVER, S-9, AROCLOR 1254, Method: STANDARD PLATE
  mutagenic call: inactive; negative

## Cc1nc2c(c3[nH]c4ccccc4c13)C(=O)C(N1CCN(C)CC1)=CC2=O
Test System: AMES SALMONELLA TYPHIMURIUM, Strain/Indicator: TA97, Metabolic Activation: NONE, Method: STANDARD PLATE
  mutagenic call: inactive; negative
Test System: AMES SALMONELLA TYPHIMURIUM, Strain/Indicator: TA97, Metabolic Activation: RAT, LIVER, S-9, AROCLOR 1254, Method: STANDARD PLATE
  mutagenic call: inactive; negative
[1]
  mutagenic call: inactive; negative
[2]
  mutagenic call: inactive; negative
[3]
  mutagenic call: active; positive
[4]
  mutagenic call: inactive; negative
Test System: AMES SALMONELLA TYPHIMURIUM, Strain/Indicator: TA102, Metabolic Activation: NONE, Method: STANDARD PLATE
  mutagenic call: inactive; negative
Test System: AMES SALMONELLA TYPHIMURIUM, Strain/Indicator: TA102, Metabolic Activation: RAT, LIVER, S-9, AROCLOR 1254, Method: STANDARD PLATE
  mutagenic call: inactive; negative
